Tests used:
[1] = Amplex assay, 10 μM H2O2 manually added to AMP dye; format: biochemical; settings: 10 μM H2O2 added to AMP dye; pH=7.4; FIG. 3
Method: FIG. 3 is a graph showing the amplex fluorescence signal produced when 10 μM H2O2 is manually added to AMP dye.

Malassezia cells = assay: Amplex ultra red (AMP dye) fluorescence, Malassezia cells on unsaturated lipophilic substrate; format: cell-based; settings: pH 5.5; ethoxyquin added to the mixture; FIG. 2
Malassezia = assay: Level of Malassezia after anti-dandruff actives delivered from shampoo; format: in vivo; settings: 1% active in shampoo formulation, after two weeks of usage; FIG. 5
Text: From left to right, the bars on the graph represent: 1% SeS2, 1% ZPT, 1% Climbazole, None (Control), 1% Platelet ZPT, 1SeS2, and 1% Ketoconazole.

Row | SMILES | amplex fluorescence signal produced by H2O2 [1] | fluorescence signal due to the action of Malassezia on substrate (Malassezia cells) | level of Malassezia (Malassezia)
1 | CCOc1ccc2c(c1)C(C)=CC(C)(C)N2 [ethoxyquin] | quenched | quenched | 
2 | S=[Se]=S [SeS2, selenium sulfide] |  |  | decreased level
3 | CC(=O)N1CCN(c2ccc(OCC3COC(Cn4ccnc4)(c4ccc(Cl)cc4Cl)O3)cc2)CC1 (stereo not shown) [Ketoconazole, ketoconazole] |  |  | decreased level
4 | CC(C)(C)C(=O)C(Oc1ccc(Cl)cc1)n1ccnc1 (stereo not shown) [Climbazole, climbazole] |  |  | decreased level
5 | [O-]n1ccccc1=S.[O-]n1ccccc1=S.[Zn+2] [ZPT, zinc salt of 1-hydroxy-2-pyridinethione] |  |  | decreased level
6 | [O-][n+]1ccccc1[S-].[O-][n+]1ccccc1[S-].[Zn+2] [Platelet ZPT] |  |  | decreased level
